According to ChEMBL document CHEMBL3862010, “N-Arylsulfonyl-α-amino carboxamides are potent and selective inhibitors of the chemokine receptor CCR10 that show efficacy in the murine DNFB model of contact hypersensitivity” (Bioorg Med Chem Lett, 2016):

Legend:
[1] = Plasma concentration in Balb/C mouse at 100 mg/kg, ip bid measured after 1 hr; type: ADME, organism-based; settings: in vivo
[2] = Protein binding in Balb/C mouse plasma at 100 mg/kg, ip bid; type: ADME, organism-based; settings: Balb/C, plasma, read-out: PPB
[3] = Plasma concentration in Balb/C mouse at 30 mg/kg, ip bid measured after 1 hr; type: ADME, organism-based; settings: Balb/C, plasma
Mus musculus = test: Antiinflammatory activity in Balb/C mouse model of contact hypersensitivity assessed as inhibition of DNFB-stimulated ear swelling at 100 mg/kg, ip bid administered at 0 and 8 hrs measured 24 hrs post DNFB stimulation; type: functional
[4] = Plasma concentration in Balb/C mouse at 100 mg/kg, ip bid measured after 7 hrs; type: ADME, organism-based
[5] = Time at which plasma concentration stays near or above in vitro murine IC50 level in Balb/C mouse at 100 mg/kg, ip bid; type: ADME, organism-based; settings: in vivo
[6] = target: T1, C-C chemokine receptor type 10 (Mus musculus, UniProt Q9JL21); test: Antagonist activity at mouse CCR10 expressed in CHOK1 cells coexpressing aequorin/Galphaq assessed as inhibition of CCL27-dependent calcium flux in presence of coelenterazine H by chemiluminescence assay; type: functional, cell-based, CHO-K1
T1 sequence (Q9JL21 whole entry): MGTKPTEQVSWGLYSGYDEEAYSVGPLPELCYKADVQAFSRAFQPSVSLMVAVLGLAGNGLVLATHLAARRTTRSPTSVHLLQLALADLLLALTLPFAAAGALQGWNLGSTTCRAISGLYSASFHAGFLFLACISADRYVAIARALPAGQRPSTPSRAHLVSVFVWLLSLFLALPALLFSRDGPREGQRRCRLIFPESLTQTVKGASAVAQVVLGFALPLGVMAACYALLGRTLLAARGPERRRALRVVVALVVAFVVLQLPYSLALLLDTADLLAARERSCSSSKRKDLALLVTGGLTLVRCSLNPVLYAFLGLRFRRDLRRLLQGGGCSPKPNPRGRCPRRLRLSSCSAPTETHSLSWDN

[7] = target: T2, C-C chemokine receptor type 10 (Homo sapiens, UniProt P46092); test: Antagonist activity at human CCR10 expressed in CHOK1 cells coexpressing aequorin/Galphaq assessed as inhibition of human CCL27-dependent calcium flux in presence of coelenterazine H by chemiluminescence assay; type: functional, cell-based, CHO-K1; settings: read-out: pIC50 (converted)
T2 sequence (P46092 whole entry): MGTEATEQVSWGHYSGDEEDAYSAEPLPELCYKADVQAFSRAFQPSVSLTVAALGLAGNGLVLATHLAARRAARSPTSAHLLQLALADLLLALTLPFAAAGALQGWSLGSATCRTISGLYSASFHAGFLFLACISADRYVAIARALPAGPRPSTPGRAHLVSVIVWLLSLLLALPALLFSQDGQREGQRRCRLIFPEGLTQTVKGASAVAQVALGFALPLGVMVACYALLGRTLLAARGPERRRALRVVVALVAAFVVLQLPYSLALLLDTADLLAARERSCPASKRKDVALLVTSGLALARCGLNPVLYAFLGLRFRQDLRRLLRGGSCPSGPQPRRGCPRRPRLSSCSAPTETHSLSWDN

[8] = target: C-C chemokine receptor type 6 (Homo sapiens, UniProt P51684); test: Antagonist activity at human CCR6 assessed as inhibition of CCL20/MIP-3alpha-induced calcium flux; type: functional
Chain of C-C chemokine receptor type 6 (P51684 whole entry): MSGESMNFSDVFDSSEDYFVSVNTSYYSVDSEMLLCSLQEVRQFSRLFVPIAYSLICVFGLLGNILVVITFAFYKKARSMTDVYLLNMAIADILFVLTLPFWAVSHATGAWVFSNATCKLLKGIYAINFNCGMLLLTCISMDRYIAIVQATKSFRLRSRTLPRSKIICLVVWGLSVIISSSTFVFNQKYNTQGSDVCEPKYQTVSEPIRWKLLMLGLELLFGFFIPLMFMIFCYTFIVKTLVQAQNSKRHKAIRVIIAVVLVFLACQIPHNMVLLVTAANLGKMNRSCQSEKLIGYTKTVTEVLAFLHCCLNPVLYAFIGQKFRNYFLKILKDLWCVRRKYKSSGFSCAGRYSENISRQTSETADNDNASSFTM

- concentration [1]: 7.6 µM
- fraction unbound [2]: 0.01
- concentration at 1 h [3]: 3.7 µM
- concentration at 7 h [4]: 0.2 µM
- Time [5]: <= 8 hr
- IC50 [6]: 0.0251 µM
- IC50 [7]: 0.001 µM
- IC50 [8]: > 10 µM
SMILES: CC1CCN(C(=O)C(CCn2cccc2C#N)NS(=O)(=O)c2cccc3[nH]ccc23)CC1 (stereo in doubt; form 1)
- inhibition in vivo at 100 mg/kg (Mus musculus): 75%
